According to patent US5491220A, “Surface loop structural analogues of fibroblast growth factors” (Yeda Research and Development Co., Ltd., priority 1994, dated 1996):

How the values were obtained:
[1] = test system: cell-associated urokinase-type plasminogen activator (uPA) activity in ABAE cells; assay: Urokinase-type plasminogen activator induction in ABAE cells; type: cell-based, bovine; conditions: 24 hours, compared with FGF-2
Experimental: Urokinase-type plasminogen activator induction by the FGF mutants is evaluated. Adult bovine aortic endothelial (ABAE) cells are seeded at 20,000 cells/well in 96-well plates and maintained in DMEM containing 10% calf serum (Hyclone, Logan, Utah) supplemented with penicillin (100 units/ml), streptomycin (100 μg/ml) and L-glutamine (2 mM) and different concentrations of FGF-2 or mutants. After 24 hours, the cells are washed with phosphate-buffered saline and lysed in 60 mM Tris-HCl, pH 8.5, containing 0.05% Triton® X-100. Cell-associated urokinase-type plasminogen activator (uPA) activity is measured as described by Presta, et al., cited above, using the plasmin chromogenic substrate D-norleucyl-hexahydrotyrosyllysine p-nitroanilide acetate (American Diagnostics, Greenwich, Conn.). Cell-associated protein concentrations are determined using Coomassie blue binding to protein. The results are plotted in FIG. 5.

FGFR1 = assay: Chemical cross-linking of 125I-FGF to soluble FGFR1; type: binding, murine; conditions: with and without excess unlabelled FGF
Experimental: (§1) Binding of FGF proteins to different FGF receptors are determined in this example, by measuring the degree of competition for binding to different types of FGF-receptor proteins between a radioiodinated FGF protein and various unlabelled proteins, or by the direct binding of radioiodinated FGF's to various receptor proteins. Binding studies are confirmed by chemical cross-linking of the radioiodinated FGF to soluble receptors in the presence and absence of excess unlabelled FGF.
(§2) Soluble FGF receptor proteins are constructed by cloning of the extracellular region of murine FGF receptor 1 (FGFR-1; flg), FGF receptor 2 (FGFR-2; bek) or the KGF receptor (FGFR(IIIb); K-sam) into the alkaline phosphatase-tag expression vector, which encodes for a secreted form of placental alkaline phosphatase (AP). The FGF receptor alkaline phosphatase (FRAP) plasmids are cotransfected into NIH 3T3 cells by electroporation with a selectable neomycin resistance gene. Clonies are selected in G418 (600 μg/ml) and screened for secreted AP enzyme activity in the conditioned medium. Clones of each receptor which produced a high level of AP activity (2 to 4 A405 units/min/ml) are then used to produce conditioned medium for binding assays.
(§3) Chemical cross-linking experiments are carried out at room temperature in a volume of 20 μl in siliconized 0.5-ml microcentrifuge tubes. The reaction mixtures contain FGF receptor immobilized to anti-AP monoclonal antibodies coupled to protein A Sepharose®, 200 ng/ml heparin, 2 ng/ml^125 I-bFGF, 20 mM phosphate buffer (pH 7.4), and 140 mM NaCl. After a 90 minute incubation, […] of a solution of disuccinimidyl suberate (Pierce) dissolved in dimethyl sulfoxide is added to give a final concentration of 0.15 mM, and the mixture incubated for an additional 30 minutes. The reaction is quenched by addition of […] of 200 mM ethanolamine-HCl (pH 8.0) for 30 min. The reaction mixtures are diluted 1:1 with 2× SDS-polyacrylamide gel electrophoresis loading buffer and electrophoresed on an SDS-12% polyacrylamide gel. Cross-linked FGF to the FGF receptor are detected by autoradiography on Kodak XAR film.

FGFR2(IIIb) = assay: Chemical cross-linking of 125I-FGF to soluble FGFR2(IIIb); type: binding, murine; conditions: with and without excess unlabelled FGF
Experimental: as §1, §2, §3

[2] = test system: bovine vascular endothelial cells derived from adult aortic arch; assay: Mitogenic activity, endothelial cell proliferation assay; type: cell-based; conditions: 5 days in culture
Experimental: The mitogenic activity of FGF-2, FGF-2LI and FGF-2LA are determined using bovine vascular endothelial cells derived from adult aortic arch as previously described (Gospardarowicz, D., et al., Proc. Nat. Acad. Sci. 81: 6963-6967 (1984)). Briefly, cells are seeded at an initial density of 0.8×10^4 cells per 24-well plate in 0.5 ml Dulbecco's modified Eagle's medium (DMEM) containing 10% calf serum (Hyclone, Logan, Utah) supplemented with penicillin (100 units/ml), streptomycin (100 ug/ml) and L-glutamine (2 mM). Two hours after plating, 20 ul aliquots of serial dilutions of FGF-2 and the mutants in DMEM are added. Inhibition of FGF-2-stimulated growth was determined at a fixed concentration of FGF-2, while that of the mutant proteins is varied. After 5 days in culture, duplicate plates are trypsinized and cell densities determined by cell counting in a Coulter counter. Determinations are conducted in duplicate.

[3] = test system: soluble FGF receptor 1 (FGFR-1; flg); assay: Competition binding to soluble FGFR1 (displacement of 125I-FGF-2); design: species or system murine; conditions: 200 ng/ml heparin
Experimental: as §1, §2
Components of the soluble receptor binding reaction mixture include FRAP-conditioned medium (0.24 OD units/min), 2 ng/ml^125 I-FGFs and 200 ng/ml heparin. The FGF:heparin:FRAP terniary complex is immunoprecipitated with 20 μl of a 1:1 slurry of anti-AP monoclonal antibodies coupled to protein A Sepharose®. All components are mixed at room temperature. The total volume is adjusted to 200 μl by addition of DMEM containing 0.1% bovine serum albumin. Binding is allowed to proceed for 1 to 2 hours at 24° C., after which time bound receptor complex or the ligand is recovered by centrifugation at 4° C. (10 s at 2,000×g). The pelleted material is washed twice with 500 μl of an ice cold buffer containing HEPES (20 mM), NaCl (150 mM), glycerol (10%) and Triton® X-100 (1%). ^125 I-FGF binding is quantitated by counting of the samples in a gamma counter (LKB). Alternatively, AP enzyme activity of the FRAP protein is determined by transferring the FRAP receptor bound to […] to a flat-bottom microtiter plate in a volume of 50 μl of PBS. The reaction is initiated by addition of substrate (50 μl of 2× solution of AP assay buffer containing 2M diethanoiamine, 1 mM MgCl2, 20 mM homoarginine and 12 mM p-nitrophenyl phosphate). The reaction is followed at room temperature at 405 nm in a kinetic microplate reader.

Row | Substance | Capability to induce urokinase-type plasminogen activator [1] | Cross-linking to FGFR1 (FGFR1) | Cross-linking to FGFR2(IIIb) (FGFR2(IIIb)) | Mitogenic potency compared with wild-type factor [2] | Binding to soluble FGFR1 (competition with 125I-FGF-2) [3] | Mitogenic potency, times less potent than FGF-2 [2] [times]
1 | FGF-2LA: human FGF-2 with loop residues 118-122 replaced by Lys-Lys-His-Ala-Glu-Lys-His from bovine FGF-1 (SEQ ID NO 16) (KKHAEKH; printed: Lys-Lys-His-Ala-Glu-Lys-His) | significantly reduced | bind | bind | as potent as the wild-type factor | bind equally well | 
2 | FGF-2LI: human FGF-2 with loop residues 118-122 replaced by Ala-Gln-Phe-Pro-Asn from human interleukin-1β (SEQ ID NO 15) | significantly reduced | bind | excluded from binding |  | bind equally well | 5 to 10
